Consider 22 compounds from patent publication US8404713B2, “Quinolinone derivatives as PARP inhibitors” (Janssen Pharmaceutica NV, priority 2007, dated 2013).

Data set [1] has as its target T1, TANK-2 enzyme (Homo sapiens, UniProt Q9H2K2).
T1 construct: made in house
T1 sequence (Q9H2K2 1-1166): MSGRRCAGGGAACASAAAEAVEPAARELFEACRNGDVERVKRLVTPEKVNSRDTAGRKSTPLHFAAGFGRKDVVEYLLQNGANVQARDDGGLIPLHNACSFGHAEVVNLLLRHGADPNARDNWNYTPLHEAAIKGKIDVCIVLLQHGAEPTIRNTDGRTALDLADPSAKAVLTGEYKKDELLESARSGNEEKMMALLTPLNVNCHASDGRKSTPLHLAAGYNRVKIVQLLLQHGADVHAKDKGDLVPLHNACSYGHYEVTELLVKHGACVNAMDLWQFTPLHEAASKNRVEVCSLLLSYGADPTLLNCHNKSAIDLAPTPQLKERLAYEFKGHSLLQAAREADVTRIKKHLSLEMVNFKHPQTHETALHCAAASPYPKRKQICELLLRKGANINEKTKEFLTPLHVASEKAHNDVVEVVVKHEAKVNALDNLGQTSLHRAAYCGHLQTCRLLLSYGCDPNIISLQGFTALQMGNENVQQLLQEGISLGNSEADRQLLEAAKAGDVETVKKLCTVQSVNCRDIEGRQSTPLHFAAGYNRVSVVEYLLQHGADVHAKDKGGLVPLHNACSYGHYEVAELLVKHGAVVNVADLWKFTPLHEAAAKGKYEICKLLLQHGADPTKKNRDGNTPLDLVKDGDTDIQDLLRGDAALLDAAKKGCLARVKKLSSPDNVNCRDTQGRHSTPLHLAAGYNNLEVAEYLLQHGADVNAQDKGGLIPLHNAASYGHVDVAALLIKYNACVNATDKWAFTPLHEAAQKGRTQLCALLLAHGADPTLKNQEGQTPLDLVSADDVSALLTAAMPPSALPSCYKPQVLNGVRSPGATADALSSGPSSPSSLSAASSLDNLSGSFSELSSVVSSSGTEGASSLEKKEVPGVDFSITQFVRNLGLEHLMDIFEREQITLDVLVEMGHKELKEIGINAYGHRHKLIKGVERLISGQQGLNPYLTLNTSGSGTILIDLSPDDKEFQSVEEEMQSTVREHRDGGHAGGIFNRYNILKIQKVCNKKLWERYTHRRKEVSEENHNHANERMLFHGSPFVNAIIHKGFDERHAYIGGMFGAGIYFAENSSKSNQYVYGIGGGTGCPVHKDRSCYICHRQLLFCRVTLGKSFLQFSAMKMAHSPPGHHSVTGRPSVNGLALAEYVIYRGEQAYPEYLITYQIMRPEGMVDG
The data set is described as follows: In vitro scintillation proximity assay (SPA) for TANK-2 inhibitory activity. It counts as biochemical. The following applies: auto-poly(ADP-ribosyl)ation, Ni flash plates; 96-well results if available, otherwise 384-well; tested between 10^-5 M and 3x10^-8 M; read-out: in vitro SPA assay TANK-2 pIC50 (converted). How it is done:
C.2. In Vitro Scintillation Proximity Assay (SPA) for TANK-2 Inhibitory Activity
Compounds of the present invention were tested in an in vitro assay based on SPA technology with Ni Flash plates (96 or 384 well).
In principle, the assay relies upon SPA technology for the detection of auto-poly(ADP-ribosyl)ation of TANK-2 protein using [^3H]-nicotinamide adenine dinucleotide ([^3H]-NAD^+) as ADP-ribosyl donor.
A stock solution of 100 nM [^3H]-NAD^+/NAD (0.1 mCi/ml, supplier: Perkin Elmer) and 0.25 mM NAD (Sigma) was made in assay buffer (60 mM Tris/HCl, pH 7.4; 0.9 mM DTT; 6 mM MgCl2). The TANK-2 enzyme was produced as described in EP1238063. 60 μl of assay buffer, together with 1 μl of compound in DMSO, 20 μl of [^3H]-NAD^+/NAD and 20 μl of TANK-2 enzyme (final concentration 8 μg/ml) was added per well into a 96-well Ni-coated flash plate (Perkin Elmer). After incubation of the mixture for 120 min. at room temperature, the reaction was terminated by adding 60 μl of stopsolution (42.6 mg NAD in 6 ml H2O). The plates were covered with a plate sealer and placed in a TopCountNX™ (Packard) for scintillation counting. Values were expressed as counts per minute (cpm). For each experiment, controls (containing TANK-2 enzyme and DMSO without compound), a blank incubation (containing DMSO but no TANK-2 enzyme or compound) and samples (containing TANK-2 enzyme and compound dissolved in DMSO) were run in parallel. All compounds tested were dissolved and eventually further diluted in DMSO. […] In each test, the blank value was subtracted from both the control and the sample values. The control sample represented maximal TANK-2 enzyme activity. For each sample, the amount of cpm was expressed as a percentage of the mean cpm value of the controls. When appropriate, IC50-values (concentration of the drug, needed to reduce the TANK-2 enzyme activity to 50% of the control) were computed using linear interpolation between the experimental points just above and below the 50% level. Herein the effects of test compounds are expressed as pIC50 (the negative log value of the IC50-value). As reference compounds, 3-aminobenzamide and 4-amino-1,8-naphtalimide were included to validate the SPA assay. Herein the assay was described using 96-well plates. In the assay using 384-well plates the same final concentrations were used and volumes were adapted.
(Scintillation proximity formats need no separation of bound from free tracer.)

The target of data set [2] is T2, Human PARP-1 enzyme (Homo sapiens, UniProt P09874).
T2 construct: purchased Trevigen
The data set is described as follows: In vitro scintillation proximity assay (SPA) for PARP-1 inhibitory activity. It counts as biochemical. The settings on record: nicked DNA activated PARP-1, [3H]-NAD+, biotinylated histones; tested between 10^-5 M and 3x10^-9 M; read-out: in vitro SPA assay PARP-1 pIC50 (converted). On the procedure:
C.1. In Vitro Scintillation Proximity Assay (SPA) for PARP-1 Inhibitory Activity
Compounds of the present invention were tested in an in vitro assay based on SPA technology (proprietary to GE healthcare).
In principle, the assay relies upon the well established SPA technology for the detection of poly(ADP-ribosyl)ation of biotinylated target proteins, i.e histones. This ribosylation is induced using nicked DNA activated PARP-1 enzyme and [^3H]-nicotinamide adenine dinucleotide ([^3H]-NAD^+) as ADP-ribosyl donor.
Histones (type II-A, supplier: Sigma) were biotinylated using the biotinylation kit of Amersham and stored aliquoted at −20° C. A stock solution of 100 mg/ml SPA poly(vinyl toluene) (PVT) beads (supplier: Amersham) was made in PBS. A stock solution of 61.6 nM [^3H]-NAD^+ was made by adding [^3H]-NAD^+ (0.1 mCi/ml, supplier: Perkin Elmer) to incubation buffer (50 mM Tris/HCl, pH 8; 0.2 mM DTT; 4 mM MgCl2). A solution of 4 mM NAD^+ (supplier: Sigma) was made. Human PARP-1 enzyme was obtained from Trevigen. Biotinylated histones and PVT-SPA beads were mixed and pre-incubated for 30 min. at room temperature. PARP-1 enzyme (concentration was lot dependent) was mixed with the nicked DNA and the mixture was pre-incubated for 30 min. at 4° C. Equal parts of this histones/PVT-SPA beads solution and PARP-1 enzyme/DNA solution were mixed and 75 μl of this mixture together with 1 μl of compound in DMSO and 25 μl of [^3H]-NAD^+ was added per well into a 96-well microtiterplate. The final concentrations in the incubation mixture were 2 μg/ml for the biotinylated histones, 2 mg/ml for the PVT-SPA beads, 0.25 μg/ml for the nicked DNA and between 0.1-0.2 μg/ml for the PARP-1 enzyme. After incubation of the mixture for 20 min. at room temperature, the reaction was terminated by adding 100 μl of 4 mM NAD^+ in water (final concentration 2 mM) and plates were mixed. The beads were sedimented by centrifugation (10 min, 800 rpm). and plates transferred to a TopCountNXT™ (Packard) for scintillation counting, values were expressed as counts per minute (cpm). For each experiment, controls (containing PARP-1 enzyme and DMSO without compound), a blank incubation (containing DMSO but no PARP-1 enzyme, no DNA or compound) and samples (containing PARP-1 enzyme, DNA and compound dissolved in DMSO) were run in parallel. All compounds tested were dissolved and eventually further diluted in DMSO. A dose-response curve was made wherein the compounds were tested at concentrations between 10^−5M and 3×10^−9M. In each test, the blank value was subtracted from both the control and the sample values. The control sample represented maximal PARP-1 enzyme activity. For each sample, the amount of cpm was expressed as a percentage of the mean cpm value of the controls. When appropriate, IC50-values (concentration of the drug, needed to reduce the PARP-1 enzyme activity to 50% of the control) were computed using linear interpolation between the experimental points just above and below the 50% level. Herein the effects of test compounds are expressed as pIC50 (the negative log value of the IC50-value). As a reference compound, 4-amino-1,8-naphthalimide was included to validate the SPA assay.

Counter-ions that a name gives are not always drawn.

T2 sequence (P09874 whole entry): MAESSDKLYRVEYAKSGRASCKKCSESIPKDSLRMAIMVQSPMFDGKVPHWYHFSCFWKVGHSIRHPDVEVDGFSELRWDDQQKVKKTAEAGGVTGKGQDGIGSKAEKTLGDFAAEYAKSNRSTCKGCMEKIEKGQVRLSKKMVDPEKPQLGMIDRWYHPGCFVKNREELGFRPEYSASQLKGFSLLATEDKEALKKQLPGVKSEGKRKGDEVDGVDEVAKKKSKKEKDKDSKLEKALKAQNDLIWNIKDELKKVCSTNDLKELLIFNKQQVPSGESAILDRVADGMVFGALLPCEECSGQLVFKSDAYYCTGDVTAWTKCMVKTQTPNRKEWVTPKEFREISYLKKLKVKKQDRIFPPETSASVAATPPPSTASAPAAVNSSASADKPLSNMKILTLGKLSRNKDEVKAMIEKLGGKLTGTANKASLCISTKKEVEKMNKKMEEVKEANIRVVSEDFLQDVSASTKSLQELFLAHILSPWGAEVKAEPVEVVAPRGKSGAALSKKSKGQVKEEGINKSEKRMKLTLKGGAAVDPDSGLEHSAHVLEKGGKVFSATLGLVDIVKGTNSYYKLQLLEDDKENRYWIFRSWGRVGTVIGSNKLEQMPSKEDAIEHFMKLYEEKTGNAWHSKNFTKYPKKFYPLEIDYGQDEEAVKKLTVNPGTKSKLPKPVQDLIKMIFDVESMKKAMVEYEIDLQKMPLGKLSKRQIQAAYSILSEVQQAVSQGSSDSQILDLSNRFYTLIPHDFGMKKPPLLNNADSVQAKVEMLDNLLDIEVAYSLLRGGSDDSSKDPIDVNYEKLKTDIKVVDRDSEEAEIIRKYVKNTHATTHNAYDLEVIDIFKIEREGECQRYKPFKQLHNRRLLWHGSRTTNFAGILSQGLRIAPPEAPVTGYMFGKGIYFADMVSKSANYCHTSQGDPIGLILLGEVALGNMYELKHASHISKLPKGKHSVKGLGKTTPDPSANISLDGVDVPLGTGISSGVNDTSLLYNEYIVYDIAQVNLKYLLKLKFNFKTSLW

A word on the melting point: it is the temperature, or range, at which the solid turns liquid. `CCc1cc2ccc(CCCN3CCN(c4ccc(C#N)cn4)CC3)cc2[nH]c1=O` (as salt: HCl) [Compound 8] gave a melting point of 174 °C.

As to `CCc1cc2ccc(CNCCc3c[nH]c4ccccc34)cc2[nH]c1=O` [Compound 1], the melting point is 155 °C. Further, the IC50 in data set [1] was 1440 nM. In addition, the IC50 in data set [2] was 13.4 nM.

The compound `CCc1cc2ccc(CN3CCN(c4ccccn4)CC3)cc2[nH]c1=O` [Compound 2] returned a melting point of 252 °C. In data set [1], the IC50 is 687 nM. Besides, in data set [2], the IC50 is 0.605 nM.

Regarding `CCc1cc2ccc(CN3CCC(c4ccccc4)CC3)cc2[nH]c1=O` [Compound 3], the melting point came out at 184 °C. Also, in data set [1], the IC50 is 5450 nM. In data set [2], the IC50 is 1.24 nM.

In turn, `CCc1cc2ccc(C(O)CN3CCOCC3)cc2[nH]c1=O` (stereo not shown) [Compound 4] registered a melting point of 163 °C. Also, the IC50 in data set [1] is 225 nM. For the same compound, the IC50 in data set [2] was 201 nM.

In the case of `CCc1cc2ccc(CN3CCN(c4ccccc4)CC3)cc2[nH]c1=O` [Compound 6], the melting point was 242 °C. Moreover, the IC50 in data set [1] was 1900 nM. Also, the IC50 in data set [2] was 0.938 nM.

Compound `Cc1cc2ccc(CN3CCC(c4ccccc4)CC3)cc2[nH]c1=O` [Compound 7] returned a melting point of 225 °C. In data set [1], the IC50 is over 10000 nM. In addition, the IC50 in data set [2] is 1.52 nM.

`CCc1cc2ccc(C(CO)N3CCC(Cc4ccccc4)CC3)cc2[nH]c1=O` (stereo not shown) [Compound 9] showed a melting point of 172 °C. Besides, the IC50 in data set [1] is 3100 nM. Further, the IC50 in data set [2] is 109 nM.

Take `CCc1cc2ccc(C(=O)N3CCc4ccccc4C3)cc2[nH]c1=O` [Compound 10]: the melting point came to 255 °C. The IC50 in data set [1] was 454 nM. Moreover, the IC50 in data set [2] was 108 nM.

On to `CCOC(=O)c1cnc(N2CCN(Cc3ccc4cc(CC)c(=O)[nH]c4c3)CC2)nc1` [Compound 11], for which the melting point amounted to 235 °C. Further, the IC50 in data set [1] is 36.1 nM. The IC50 in data set [2] was 51.3 nM.

Compound `CCc1cc2ccc(C(C(C)C)N3CCN(c4ccc(C#N)cn4)CC3)cc2[nH]c1=O` (stereo not shown) [Compound 13] gave a melting point of 135 °C. For the same compound, in data set [1], the IC50 was 269 nM. Besides, the IC50 in data set [2] is 3.94 nM.

Compound `CCc1cc2ccc(C(C)NCCc3c[nH]c4ccccc34)cc2[nH]c1=O` (stereo not shown) [Compound 14] gave a melting point of 170 °C. The IC50 in data set [1] is 428 nM. Also, the IC50 in data set [2] is 70.1 nM.

As for `CCc1cc2ccc(CNC3CCN(c4ncccn4)CC3)cc2[nH]c1=O` [Compound 15], the melting point was 168 °C. Besides, the IC50 in data set [1] is 2150 nM. In addition, the IC50 in data set [2] is 77.4 nM.

Regarding `CCc1cc2ccc(CN3CCN(c4ncc(C(N)=O)cn4)CC3)cc2[nH]c1=O` [Compound 16], the melting point was over 250 °C. Further, the IC50 in data set [1] was 36.2 nM. Besides, the IC50 in data set [2] was 7.4 nM.

As to `Cc1cc2ccc(C(C)N3CCN(c4ccccc4C#N)CC3)cc2[nH]c1=O` (stereo not shown) [Compound 20], the melting point was found to be 190 °C. Also, the IC50 in data set [1] was 940 nM. The IC50 in data set [2] was 1.08 nM.

On to `COc1ccccc1N1CCN(Cc2ccc3cc(C)c(=O)[nH]c3c2)CC1` [Compound 23], for which the melting point was determined as 198 °C. Further, the IC50 in data set [1] was over 10000 nM. Moreover, the IC50 in data set [2] is 0.251 nM.

Turning to `CCc1cc2c(OC)cc(CN3CCN(c4ccccc4Cl)CC3)cc2[nH]c1=O` [Compound 71], the IC50 in data set [1] is 1780 nM; in data set [2], 4.27 nM.

As to `COc1ccccc1N1CCN(C(c2ccc3cc(C)c(=O)[nH]c3c2)C2CCCCC2)CC1` (stereo not shown) [Compound 72], the IC50 in data set [1] is 933 nM; in data set [2], at least 10000 nM.

For the compound `Cc1cc2ccc(C(C3CCCCC3)N3CC=C(c4ccccc4)CC3)cc2[nH]c1=O` (stereo not shown) [Compound 73], the values for the IC50 in data set [1] and in data set [2] were 646 nM and 1290 nM, respectively.

As to `Cc1cc2ccc(C(C)N3CCC(c4ccccc4)CC3)cc2[nH]c1=O` (stereo not shown) [Compound 74], the IC50 was 1860 nM in data set [1] and 6.46 nM in data set [2].

On to `Cc1cc2ccc(C(C3CCCCC3)N3CCN(c4ccccn4)CC3)cc2[nH]c1=O` (stereo not shown) [Compound 75], for which the IC50 was over 10000 nM in data set [1] and 309 nM in data set [2].

Turning to `Cc1cc2ccc(C(C)N3CCN(c4ccccc4Cl)CC3)cc2[nH]c1=O` (stereo not shown) [Compound 76], the IC50 in data set [1] is 1550 nM; in data set [2], 0.646 nM.
